Laboratory results: patent publication US7592144B2, “Bacterial ligand-binding sensor” (The Trustees of Princeton University, priority 2005, dated 2009)
“Also recorded” adds a separate entry of the source.

Experiments:
[1] = biological target: T1, human thyroid hormone receptor beta ligand-binding domain (Homo sapiens, UniProt P10828); assay: Paper disk growth test of cells harboring pMIT::TR* on thymineless agar plates; type: cell-based; conditions: 30 degrees Celsius, approximately 50 hours, disks saturated in 10 millimolar solutions
T1 construct: expressed in transfected cells; host or cells: E. coli D1210(delta)thyA carrying pMIT::TR*
T1 sequence (P10828 203-461): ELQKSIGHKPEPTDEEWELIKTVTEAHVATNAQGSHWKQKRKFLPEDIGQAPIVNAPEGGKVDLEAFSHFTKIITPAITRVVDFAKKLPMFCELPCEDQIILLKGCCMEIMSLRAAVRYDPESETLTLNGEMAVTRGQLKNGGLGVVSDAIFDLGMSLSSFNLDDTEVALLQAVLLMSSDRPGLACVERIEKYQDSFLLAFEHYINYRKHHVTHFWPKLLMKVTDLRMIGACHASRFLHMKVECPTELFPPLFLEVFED
Experimental: (§1) FIG. 2 consists of FIGS. 2A, 2B, 2C, and 2D. FIG. 2A is a graph that depicts ligand effects on the growth phenotypes of E. coli D1210(delta)thyA cells carrying the pMIT::ER* vector in 50 milliliter cultures of liquid thymineless medium at 34 degrees Celsius. […] Varying concentrations of estrogen were dissolved in dimethylsulfoxide to allow precise control of dosing. Experiments were carried out in duplicate and errors bars represent one standard deviation from the mean value. FIG. 2C is a graph that depicts ligand effects on the growth phenotypes of cells harboring pMIT::TR* in 50 milliliter cultures of liquid thymineless medium at 34 degrees Celsius. FIG. 2D is an image that depicts ligand effects on the growth phenotypes of cells harboring pMIT::TR* and incubated on thymineless agar plates at 30 degrees Celsius for approximately 50 hours. […] In the experiment corresponding to FIG. 2D, the paper disks applied were allowed to saturate in 10 millimolar solutions of estrogen and thyroid hormone prior to applying them to the medium.
In this case a lawn of cells was plated onto thymineless medium and exposed to small paper disks impregnated with either estrogen or thyroid hormone.

[2] = biological target: T2, human estrogen receptor alpha ligand-binding domain (Homo sapiens, UniProt P03372); assay: Detection of antagonism: pMIT::ER* cells grown in the presence of E2 plus increasing concentrations of test compound; type: cell-based; conditions: 10 micromolar E2, liquid thymineless medium, 34 degrees Celsius, OD600 at 15 hours
T2 construct: expressed in transfected cells; host or cells: E. coli D1210(delta)thyA carrying pMIT::ER*
T2 sequence (P03372 301-553): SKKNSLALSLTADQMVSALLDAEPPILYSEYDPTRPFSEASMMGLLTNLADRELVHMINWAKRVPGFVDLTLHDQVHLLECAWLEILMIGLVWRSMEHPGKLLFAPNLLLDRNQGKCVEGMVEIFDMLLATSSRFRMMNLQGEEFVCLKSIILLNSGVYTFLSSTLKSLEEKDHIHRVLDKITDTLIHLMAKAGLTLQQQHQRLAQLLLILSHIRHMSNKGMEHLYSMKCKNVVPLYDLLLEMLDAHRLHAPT
Experimental: FIG. 4 is a graph showing antagonism of estrogen agonists and antagonists. […] Relative cell growth was determined by OD600 at 15 hours in 5 milliliter cultures of liquid thymineless medium at 34 degrees Celsius.
(§2) All experiments were carried out at least in duplicate.

ER = biological target: T3, ER (Homo sapiens, UniProt P03372); assay: Hormone-dependent growth with inteinless MBP-ER-TS fusion
T3 sequence (P03372 301-553): T2 sequence (P03372 301-553)

[3] = biological target: T2, human estrogen receptor alpha ligand-binding domain; assay: Growth phenotype of E. coli D1210(delta)thyA cells carrying pMIT::ER* in liquid thymineless medium; type: cell-based; conditions: 34 degrees Celsius, ligand 10 micromolar
Experimental: as §1, §2

[4] = biological target: T1, human thyroid hormone receptor beta ligand-binding domain; assay: Growth phenotype of E. coli D1210(delta)thyA cells carrying pMIT::TR* in liquid thymineless medium; type: cell-based; conditions: 34 degrees Celsius, ligand 10 micromolar
Experimental: as §1, §2

17-beta-estradiol [E2]
colony formation around ligand-impregnated paper disk [1]: no colonies could be observed

4-hydroxytamoxifen
effect on cell growth when combined with estrogen agonist [2]: inhibitory effects | behaviour (agonist/antagonist) with inteinless fusion (ER): estrogen super-agonist

N[C@@H](Cc1ccc(Oc2cc(I)c(O)c(I)c2)c(I)c1)C(=O)O [T3, 3,3′,5′-triiodo-L-thyronine]
ligand effect on cell growth [3]: insensitive; also recorded: enhance growth only in cell cultures expressing the TR fusion | ligand effect on cell growth [4]: able to grow only in the presence; also recorded: able to enhance growth | colony formation around ligand-impregnated paper disk [1]: clear colonies were observed

CC(=O)[C@H]1CC[C@H]2[C@@H]3CCC4=CC(=O)CC[C@]4(C)[C@H]3CC[C@]12C [progesterone]
ligand effect on cell growth [3]: no effect on cell growth | ligand effect on cell growth [4]: no effect on cell growth
